Data from patent publication US10357478B2, “Polyamide compound and pharmaceutical composition for treating mitochondrial genetic diseases” (Triplex Therapeutics Inc., priority 2011, dated 2019).

How the values were obtained:
[1] = tested on: wild-type dsDNA (normal (wild-type) mtDNA template, 21 bases containing the 3243rd base); assay: EMSA (electrophoretic mobility shift assay), binding to wild-type oligo-DNA; conditions: 10^−4 M polyamide, 1 hour at 37° C.
Protocol: (§1) In this Example, a binding specific to the base sequence was confirmed in vitro between the ML1 polyamide and the target. The assay was carried out in EMSA (electrophoretic mobility shift assay). The wild-type oligo-DNA with 21 bases containing the 3243rd base on which the A3243G mutation exists and the A3243G mutation oligo-DNA thereof were produced. A sense-stranded DNA with FITC bound at 5′-end and an antisense-stranded DNA were thermally denatured, slowly cooled, and annealed to obtain dsDNAs having the following sequence:
(§2) To dsDNA (50 pmol/10 μL), 40 μL of ddH2O was added and the whole was diluted to 1 pmol/μL. 4 pmol of the resulting dsDNA were mixed with the MLI polyamide solution so that the concentration became 10^−4M, and incubated for 1 hour at 37° C. Then, the sample was mixed with a loading buffer and applied on 20% non-denatured acrylamide gel (0.5×TBE) which was pre-run for 10 minutes at 350 V. An electrophoresis was carried out at 4′C and 100 V until BPB reached ¾ of the lower end of the gel, and a shift of the band was detected by LAS-3000 (Fuji Film).
(§3) The composition of the non-denatured acrylamide gel used in EMSA is shown as below: […]

[2] = tested on: A3243G mutant dsDNA (A3243G mutation mtDNA template); assay: EMSA (electrophoretic mobility shift assay), binding to A3243G mutation oligo-DNA; conditions: 10^−4 M polyamide, 1 hour at 37° C.
Protocol: as §1, §2, §3

[3] = tested on: 2SD cybrid cells (MELAS cybrid cells); assay: Replication of wild-type mtDNAs in MELAS cybrid cells (PCR-RFLP); format: cell-based; conditions: for increase level of wild-type mtDNAs in comparison with control: long-term (7, 15 or 35 days); for increase of wild-type mtDNAs: 35 days
Protocol: The MLI polyamide was given to the cultivated MELAS cybrid cells to confirm if the wild-type mtDNAs were positively reproduced in cells.
2SD cybrid cells were seeded on a 10 cm dish, and the MLI polyamide dissolved in 50% DMSO was added to the complete DMEM so that a final concentration thereof became 1 μM, 5 μM, or 10 μM. The medium to which the MLI polyamide was added was replaced every third day. In the control experiments, DMSO with the same diluted rate was added to the medium. The polyamide solution in 50% DMSO solution was diluted with ddH2O so that the concentration of DMSO in the medium became 0.1% or less, or 0.05% at a maximum.
Total DNAs were extracted from the cybrid cells treated by the MLI polyamide 14 days later, PCR-RFLP was then carried out, the bands were quantitatively analyzed by microchip electrophoresis (MCE-202 MultiNA; Shimadzu Corporation), and a mutation rate of the cybrid cells was analyzed.
Further, long-term effects were analyzed when the concentration of the MLI polyamide in the medium was 1 μM, 500 nM, or 100 nM. Total DNAs were extracted from the cybrid cells 7 days, 15 days, or 35 days later, PCR-RFLP was then carried out, electrophoresis was performed on 2% agarose gel (1×TAE), and an increase level of the wild-type mtDNAs was measured.

143B cells = assay: Cytotoxicity in DMEM without sodium pyruvate and uridine, 143B cells; format: cell-based; conditions: 100 nM, 500 nM or 1 μM, 30 hours or 1 week
Protocol: (§4) 143B cells or HeLa cells were cultured in a medium prepared by adding 1 μM of ML1 polyamide to a 10% FBS-added DMEM (free of sodium pyruvate and uridine) wherein respiratory chain-defective cells are inviable. The synthesis of the respiratory chain proteins in mitochondria is essential to life-support, and only a slight dysfunction thereof results in cell death.
(§5) 143B cells or HeLa cells were cultured for a week in normal DMEM, complete DMEM (containing 0.1 mg/mL of sodium pyruvate, and 50 μg/mL of uridine), complete DMEM with the ML1 polyamide, or DMEM with the ML1 polyamide, and survival or death was observed.
(§6) In the culture of 143B cells, the MLI polyamide was added at the concentration of 100 nM, 500 nM, or 1 μM, whereas in the culture of Hela cells, the MLI polyamide was added at the concentration of 1 μM.

HeLa cells = assay: Cytotoxicity in DMEM without sodium pyruvate and uridine, HeLa cells; format: cell-based; conditions: 1 μM, 30 hours or 1 week
Protocol: as §4, §5, §6

[4] = 1 μM, 14 days, PCR-RFLP, microchip electrophoresis
[5] = 5 μM, 14 days, PCR-RFLP, microchip electrophoresis

## CC(=O)Nc1cc(C(=O)Nc2cc(C(=O)Nc3cc(C(=O)NCCC(=O)Nc4cn(C)c(C(=O)Nc5cc(C(=O)Nc6cc(C(=O)NCCCC(=O)Nc7cn(C)c(C(=O)Nc8cn(C)c(C(=O)Nc9cc(C(=O)NCCC(=O)Nc%10cn(C)c(C(=O)Nc%11cc(C(=O)Nc%12cn(C)c(C(=O)NCCC(=O)NCCCN(C)C)n%12)n(C)c%11)n%10)n(C)c9)n8)n7)n(C)c6)n(C)c5)n4)n(C)c3)n(C)c2)n(C)c1 [ML1 polyamide, Ac-Py-Py-Py-β-Im-Py-Py-γ-Im-Im-Py-β-Im-Py-Im-β-Dp]
[1]
  shift of the band of wild-type dsDNA in EMSA: significantly shifted
[1]; listed as MLI polyamide
  shift of the band of wild-type dsDNA in EMSA: clear shift of the band
[2]
  shift of the band of A3243G mutant dsDNA in EMSA: no significant shift
[2]; listed as MLI polyamide
  shift of the band of A3243G mutant dsDNA in EMSA: not clearly observed
[3]; 100 nM, PCR-RFLP, agarose gel
  increase level of wild-type mtDNAs in comparison with control: grossly visible increase level
[3]; 500 nM, 15 days, agarose gel
  increase level of wild-type mtDNA: significant increase level
[3]; 500 nM, agarose gel
  increase of wild-type mtDNAs: continuous increase level
[3]; 500 nM, agarose gel, listed as MLI polyamide
  increase of wild-type mtDNAs: continuous increase
[3]; 500 nM, PCR-RFLP, agarose gel
  increase level of wild-type mtDNAs in comparison with control: grossly visible increase level
[3]; [4]
  increase level of wild-type mtDNA: increase levels of wild-type mtDNA
  mutation rate of the cybrid cells: decrease of the mutation rate
[3]; 1 μM, 14 days, PCR-RFLP, microchip electrophoresis, listed as MLI polyamide
  increase level of wild-type mtDNA: concentration-dependent increase level
[3]; 1 μM, PCR-RFLP, agarose gel
  increase level of wild-type mtDNAs in comparison with control: grossly visible increase level
[3]; [5]
  increase level of wild-type mtDNA: increase levels of wild-type mtDNA
  mutation rate of the cybrid cells: decrease of the mutation rate
[3]; 5 μM, 14 days, PCR-RFLP, microchip electrophoresis, listed as MLI polyamide
  increase level of wild-type mtDNA: concentration-dependent increase level
143B cells
  morphological changes or cell cytotoxicity: did not show any morphological changes or cell cytotoxicity
HeLa cells
  morphological changes or cell cytotoxicity: did not show any morphological changes or cell cytotoxicity
